The results in this text go back to patent US8314082B2, “Stilbene derivatives for ADP-ribosyl cyclase inhibitors” (Industrial Cooperation Foundation Chonbuk National …, priority 2006, dated 2012).

For experiment [1], the system named is 2 kidney 1 clip hypertensive rat model. Kind of experiment: Systolic blood pressure in 2 kidney 1 clip hypertensive rat model. It is filed as in vivo, Sprague-Dawley male rats. Conditions: intraperitoneal 428 μg/200 g/d, from day 7 after surgery for 7 weeks, tail plethysmography. The protocol:
Renovascular hypertension was produced by 2KlC Sprague-Dawley male rats (7-9 weeks old) weighing 200 to 220-g were anesthetized with ketamine (100 mg/kg, intra-peritoneally) and rumpen (5 mg/kg, intraperitoneally). The left kidney was exposed through the median abdominal incision, and the renal artery was separated from the renal vein with caution. Then, a silver clip with 0.15 mm slit was placed around the renal artery. The sham procedure was performed, including the entire surgery with the exception of arterial clipping. To examine the effect of 2,2′-DHAB in the 2KlC model, we administered it at days 7 after the surgery for 7 weeks. 2,2′-DHAB was injected intraperitoneally with 58% DMSO plus saline at a dose of 1.5 μl/g body weight (428 μg/200 g/d). Sham group and control 2KlC received DMSO plus saline treatment. The dose of injected DMSO had no side effect on blood pressure (BP) or any other parameters. Systolic blood pressure was measured by a method using tail plethysmography in conscious rats once a week, from the day prior to surgery until the day of sacrifice.

Experiment [2] relates to ADPR-cyclase purified partially from rat brain. Kind of experiment: ADPR-cyclase activity assay, brain enzyme. It is filed as biochemical. More on the design: dose or concentration left out as unconfirmed. As to the method:
(§1) FIGS. 1A and 1B show the inhibition of rat kidney ADPR-cyclase that was incubated with […] NGD^+ or e-NAD^+ in the presence of various concentrations of 4,4′-dihydrioxyazobenzene (DHAB) at 37° C. for 10 min and effects of DHAB on human CD38, rat brain, heart, spleen, and kidney ADPR-cyclase. FIGS. 1A and 1B are referred to as FIG. 1 herein.
(§2) Specific ADPR-cyclase activity was determined by measuring cyclic GDP-ribose (cGDPR) or etheno-ADP-ribose (e-cADPR) fluorometrically using NGD^+ or e-NAD^+ as a substrate [Greaff et al., Biochem. J. (2002)361:379-84]. Samples were incubated in the presence […] NGD^+ or e-NAD^+ with and without an appropriate agent in an assay buffer (25 mM HEPES, pH 7.4, 100 mM NaCl, and 0.1% Triton X-100) in a […]. The reaction mixture was incubated at 37° C. for 10 min. The reaction was stopped by adding […] trichloroacetic acid (10%). […] Fluorescence of cGDPR or e-ADPR in the solution was determined at excitation/emission wavelengths of 297/410 nm (HITACHI F-2000 fluorescence spectrophotometer). cADPR-hydrolase activity was determined by incubating cADPR with ADPR-cyclase or CD38 at 37° C. for 20 min. Hydrolysis of cADPR was analyzed by high performance liquid chromatography as described (White et al., 2000). […]

The next experiment addresses T1, human CD38 (Homo sapiens, UniProt P28907).
T1 sequence (P28907 1-300): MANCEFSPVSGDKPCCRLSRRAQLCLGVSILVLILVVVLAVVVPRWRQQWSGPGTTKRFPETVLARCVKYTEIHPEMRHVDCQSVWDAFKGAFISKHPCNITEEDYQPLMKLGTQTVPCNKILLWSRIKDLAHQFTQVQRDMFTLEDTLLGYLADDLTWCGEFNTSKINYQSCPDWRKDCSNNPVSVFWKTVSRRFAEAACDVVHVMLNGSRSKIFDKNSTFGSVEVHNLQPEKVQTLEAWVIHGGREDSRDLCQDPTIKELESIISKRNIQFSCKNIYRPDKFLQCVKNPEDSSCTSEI
Kind of experiment: ADPR-cyclase activity assay, CD38. It is filed as biochemical. More on the design: dose or concentration left out as unconfirmed. The protocol: as §1, §2

The next experiment deals with STZ diabetic mice. Kind of experiment: Diabetic nephropathy in STZ diabetes mouse model. It is filed as in vivo. The settings on record: 45 μg/kg i.p. once a day for 6 weeks, mean SE, n = 6. The protocol:
Male mice, weighing 20 25 g, were made diabetic by a single intravenous injection of STZ (65 mg/kg body weight) in 0.05 M citrate buffer (pH 4.8). At the same day, the control mice were injected with the citrate buffer. After 2 days, induction of diabetes was confirmed by tail blood glucose level measurement by using the LifeScan One Touch glucometer (Johnson & Johnson). The diabetic mice (>16 mM blood glucose) were randomly divided into two groups; 6 mice per group treated with vehicle (0.1% DMSO in saline, 100 μl) or DHAB (45 μg/kg body weight in 0.1% DMSO in saline, 100 μl) and resveratrol (45 μg/kg body weight in 0.1% DMSO in saline, 100 μl) administered by intraperitoneal injection once a day for 6 weeks. The control mice were 6 mice per group treated with the vehicle. On day 39, the mice were detained in individual metabolic cages for 24 h for urine collection. On day 42, the mice were anesthetized with diethyl ether, and blood samples were taken from the abdominal aorta. Bilateral kidneys were rapidly removed and weighed. Urine was gravimetrically collected, and urinary albumin concentrations were determined with an enzyme-linked immunosorbent assay using a murine microalbuminuria kit (Albuwell; Exocell, Philadelphia, Pa.). Urine and serum creatinine levels were measured using the QuantiChrom Creatinine Assay Kit (BioAssay Systems, Hayward, Calif.), following the manufacturer's protocol.

As for `Oc1ccccc1/N=N/c1ccccc1O` [2,2′-DHAB, 2,2′-Dihydroxyazobenzene], the “effect on elevation of systolic blood pressure” value in experiment [1] is “prevented the elevation of blood pressure”.

Take `Oc1ccc(N=Nc2ccc(O)cc2)cc1` [4,4′-DHAB, 4,4′-Dihydroxyazobenzene]: in experiment [2], the “sensitivity of enzyme activity to compound” value is reported as “insensitive”. The “sensitivity of enzyme activity to compound” value at human CD38 is listed as “insensitive”. Also, in the experiment on STZ diabetic mice (24 h metabolic cage), the Urine output was found to be 2.27 ± 1.80 mL/day. For the same molecule, in the experiment with STZ diabetic mice, the “Body Weight” value came out at 22.1 ± 0.58 g, the Food intake amounted to 2.27 ± 0.61 g, the Plasma glucose stood at 342 ± 36.1 mg/dL and the “Urinary Albumin” value was determined as 4.01 ± 3.61 µg/day. In the experiment on STZ diabetic mice, this molecule yielded a Water intake of 2.00 ± 1.73 mL.
